What was measured:
[1] = target: Tyrosine-protein kinase ABL2 (Homo sapiens) (UniProt P42684); details: Compound concentration 1000.0 nM
[2] = target: Ribosomal protein S6 kinase alpha-4 (Homo sapiens) (UniProt O75676); details: Compound concentration 1000.0 nM
[3] = test system: Hepatocyte growth factor receptor (Homo sapiens), P08581 [Y1235D]; details: Compound concentration 1000.0 nM
[4] = target: Mitogen-activated protein kinase kinase kinase 13 (Homo sapiens) (UniProt O43283); details: Compound concentration 1000.0 nM
Mitogen-activated protein kinase kinase kinase 13 (Homo sapiens), sequence (O43283 whole entry): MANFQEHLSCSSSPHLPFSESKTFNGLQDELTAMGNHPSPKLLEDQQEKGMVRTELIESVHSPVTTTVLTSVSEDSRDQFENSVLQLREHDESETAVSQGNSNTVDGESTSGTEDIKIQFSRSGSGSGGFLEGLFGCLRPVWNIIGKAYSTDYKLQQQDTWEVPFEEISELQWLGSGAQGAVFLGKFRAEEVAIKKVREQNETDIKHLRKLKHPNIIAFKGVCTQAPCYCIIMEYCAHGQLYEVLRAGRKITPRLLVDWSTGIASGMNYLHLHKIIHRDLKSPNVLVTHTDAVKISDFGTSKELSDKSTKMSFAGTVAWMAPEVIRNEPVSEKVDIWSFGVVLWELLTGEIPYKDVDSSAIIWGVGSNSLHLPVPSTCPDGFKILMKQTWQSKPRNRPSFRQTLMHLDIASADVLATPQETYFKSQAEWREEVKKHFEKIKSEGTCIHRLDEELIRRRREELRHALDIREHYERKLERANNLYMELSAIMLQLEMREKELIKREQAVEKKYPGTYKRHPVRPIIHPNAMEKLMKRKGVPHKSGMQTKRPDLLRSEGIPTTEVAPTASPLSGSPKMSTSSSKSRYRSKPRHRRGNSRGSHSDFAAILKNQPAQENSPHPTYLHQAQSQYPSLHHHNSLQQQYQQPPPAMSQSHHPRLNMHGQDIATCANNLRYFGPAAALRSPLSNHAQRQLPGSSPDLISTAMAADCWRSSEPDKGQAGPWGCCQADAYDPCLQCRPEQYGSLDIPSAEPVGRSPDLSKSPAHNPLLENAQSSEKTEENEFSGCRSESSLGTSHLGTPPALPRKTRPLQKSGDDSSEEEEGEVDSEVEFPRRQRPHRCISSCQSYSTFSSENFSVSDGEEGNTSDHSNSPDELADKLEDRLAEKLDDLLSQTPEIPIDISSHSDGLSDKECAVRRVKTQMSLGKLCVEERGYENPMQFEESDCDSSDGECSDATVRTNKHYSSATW

[5] = target: 5-hydroxytryptamine receptor 1D (Homo sapiens) (UniProt P28221); details: Compound concentration 10.0 uM
5-hydroxytryptamine receptor 1D (Homo sapiens), sequence (P28221 whole entry): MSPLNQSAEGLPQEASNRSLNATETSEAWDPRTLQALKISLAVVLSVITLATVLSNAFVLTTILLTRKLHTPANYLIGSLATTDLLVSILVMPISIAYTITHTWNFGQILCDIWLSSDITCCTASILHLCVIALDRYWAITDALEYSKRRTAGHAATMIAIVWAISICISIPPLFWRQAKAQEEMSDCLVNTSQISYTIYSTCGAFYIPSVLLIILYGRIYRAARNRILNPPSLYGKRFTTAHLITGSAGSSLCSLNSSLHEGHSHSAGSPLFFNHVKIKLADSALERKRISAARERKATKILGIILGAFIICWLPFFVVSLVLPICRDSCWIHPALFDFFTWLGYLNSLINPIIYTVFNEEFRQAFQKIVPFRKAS

Ribosomal protein S6 kinase alpha-4 (Homo sapiens), sequence (O75676 whole entry, looked up): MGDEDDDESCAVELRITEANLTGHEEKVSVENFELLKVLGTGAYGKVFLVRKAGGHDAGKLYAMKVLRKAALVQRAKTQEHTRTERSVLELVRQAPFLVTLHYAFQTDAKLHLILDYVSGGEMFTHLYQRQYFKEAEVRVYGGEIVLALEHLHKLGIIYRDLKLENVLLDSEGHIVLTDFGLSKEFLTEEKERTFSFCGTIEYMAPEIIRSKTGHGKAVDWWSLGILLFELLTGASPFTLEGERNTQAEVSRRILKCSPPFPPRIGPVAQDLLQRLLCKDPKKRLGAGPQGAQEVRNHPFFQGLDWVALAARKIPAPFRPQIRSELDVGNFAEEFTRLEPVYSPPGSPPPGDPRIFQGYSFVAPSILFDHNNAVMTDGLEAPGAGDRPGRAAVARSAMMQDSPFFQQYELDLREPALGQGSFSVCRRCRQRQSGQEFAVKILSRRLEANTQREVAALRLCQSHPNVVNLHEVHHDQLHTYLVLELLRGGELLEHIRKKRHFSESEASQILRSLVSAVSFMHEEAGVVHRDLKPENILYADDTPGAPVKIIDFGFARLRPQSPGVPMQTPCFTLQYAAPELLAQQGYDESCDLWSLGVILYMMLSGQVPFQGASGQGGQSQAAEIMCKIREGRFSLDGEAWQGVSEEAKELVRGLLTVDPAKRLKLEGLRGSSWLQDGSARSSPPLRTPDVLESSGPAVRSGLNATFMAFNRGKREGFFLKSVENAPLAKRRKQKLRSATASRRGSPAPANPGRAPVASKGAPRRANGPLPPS
Tyrosine-protein kinase ABL2 (Homo sapiens), sequence (P42684 whole entry): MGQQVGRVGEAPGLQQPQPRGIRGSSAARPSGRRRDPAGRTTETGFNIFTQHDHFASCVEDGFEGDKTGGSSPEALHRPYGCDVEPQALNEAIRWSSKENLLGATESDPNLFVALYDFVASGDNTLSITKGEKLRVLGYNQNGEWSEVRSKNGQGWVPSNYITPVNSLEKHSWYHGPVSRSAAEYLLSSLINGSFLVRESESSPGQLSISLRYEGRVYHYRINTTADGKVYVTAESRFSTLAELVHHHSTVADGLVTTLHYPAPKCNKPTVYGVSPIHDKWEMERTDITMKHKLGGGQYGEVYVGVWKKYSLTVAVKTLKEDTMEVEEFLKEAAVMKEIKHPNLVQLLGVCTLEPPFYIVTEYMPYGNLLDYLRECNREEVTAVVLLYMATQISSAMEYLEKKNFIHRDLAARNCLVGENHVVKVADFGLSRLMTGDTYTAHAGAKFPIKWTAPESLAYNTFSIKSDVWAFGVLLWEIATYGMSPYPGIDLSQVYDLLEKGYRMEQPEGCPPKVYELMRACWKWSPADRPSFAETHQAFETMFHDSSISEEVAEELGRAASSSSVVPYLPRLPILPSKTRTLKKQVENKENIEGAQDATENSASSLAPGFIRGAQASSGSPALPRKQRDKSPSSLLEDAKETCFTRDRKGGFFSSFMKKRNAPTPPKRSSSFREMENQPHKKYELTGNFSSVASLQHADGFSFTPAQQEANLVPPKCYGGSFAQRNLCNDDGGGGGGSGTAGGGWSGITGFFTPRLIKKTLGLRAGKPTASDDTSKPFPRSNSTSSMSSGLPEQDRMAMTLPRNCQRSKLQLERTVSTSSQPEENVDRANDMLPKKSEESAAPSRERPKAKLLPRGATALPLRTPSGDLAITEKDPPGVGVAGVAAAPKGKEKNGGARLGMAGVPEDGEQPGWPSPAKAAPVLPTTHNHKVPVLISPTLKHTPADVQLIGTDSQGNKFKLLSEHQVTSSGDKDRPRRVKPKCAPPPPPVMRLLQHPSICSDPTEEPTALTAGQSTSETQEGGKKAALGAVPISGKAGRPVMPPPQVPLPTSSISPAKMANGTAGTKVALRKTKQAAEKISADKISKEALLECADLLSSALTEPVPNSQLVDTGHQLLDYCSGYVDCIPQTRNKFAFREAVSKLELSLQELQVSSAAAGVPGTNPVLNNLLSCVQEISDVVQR

CN(C)CC#Cc1ccc(OCCCc2sc(N3CCc4cccc(C(=O)Nc5nc6ccccc6s5)c4C3)nc2C(=O)O)c(F)c1 [A-1155463]
inactive: residual activity [1] 100% | residual activity [2] 100% | residual activity [3] 95% | residual activity [4] 96% | inhibition [5] 34.5%
